The structures appear in SMILES notation.

For test [1], the target named is Cyclin-dependent kinase 11B (Homo sapiens) (UniProt P21127). The test is described as follows: Inhibition of CDK11 (unknown origin) assessed as residual activity at 1000 nM by KINOMEscan analysis relative to control.
In test [2] the test system is Epidermal growth factor receptor (Homo sapiens), P00533 [L858R,T790M]. As to the kind of experiment: Inhibition of EGFR L858R/T790M mutant (unknown origin) assessed as residual activity at 1000 nM by KINOMEscan analysis relative to control.
The target in test [3] is T1, Ephrin type-A receptor 8 (Homo sapiens) (UniProt P29322).
T1 sequence (whole entry): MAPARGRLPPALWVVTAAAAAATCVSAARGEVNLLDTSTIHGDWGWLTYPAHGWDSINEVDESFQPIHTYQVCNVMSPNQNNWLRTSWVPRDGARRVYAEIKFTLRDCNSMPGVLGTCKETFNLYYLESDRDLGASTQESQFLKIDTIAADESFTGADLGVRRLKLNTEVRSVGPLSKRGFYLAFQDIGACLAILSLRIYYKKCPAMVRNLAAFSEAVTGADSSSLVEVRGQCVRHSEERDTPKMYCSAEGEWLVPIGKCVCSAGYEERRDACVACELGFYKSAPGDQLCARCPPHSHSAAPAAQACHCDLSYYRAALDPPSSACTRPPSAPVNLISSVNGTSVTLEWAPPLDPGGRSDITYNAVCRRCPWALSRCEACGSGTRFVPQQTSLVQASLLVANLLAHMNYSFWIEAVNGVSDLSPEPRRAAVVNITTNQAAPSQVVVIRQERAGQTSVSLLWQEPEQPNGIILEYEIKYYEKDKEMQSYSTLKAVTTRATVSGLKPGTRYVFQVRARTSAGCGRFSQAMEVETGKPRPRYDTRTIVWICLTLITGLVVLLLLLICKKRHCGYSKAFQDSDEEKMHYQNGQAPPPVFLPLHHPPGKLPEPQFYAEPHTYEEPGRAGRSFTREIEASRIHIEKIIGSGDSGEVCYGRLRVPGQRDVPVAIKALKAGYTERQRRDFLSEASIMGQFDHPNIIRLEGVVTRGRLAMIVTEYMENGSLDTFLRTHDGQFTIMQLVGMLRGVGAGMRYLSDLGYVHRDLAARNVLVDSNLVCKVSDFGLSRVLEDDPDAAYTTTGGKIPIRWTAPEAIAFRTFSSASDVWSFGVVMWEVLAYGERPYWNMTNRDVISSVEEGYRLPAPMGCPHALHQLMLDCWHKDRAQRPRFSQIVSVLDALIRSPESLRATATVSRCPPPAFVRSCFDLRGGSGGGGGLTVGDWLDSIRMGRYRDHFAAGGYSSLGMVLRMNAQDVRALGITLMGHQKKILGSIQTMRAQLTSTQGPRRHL
The test is described as follows: Inhibition of EPHA8 (unknown origin) assessed as residual activity at 1000 nM by KINOMEscan analysis relative to control.

The test system of test [4] is Receptor-type tyrosine-protein kinase FLT3 (Homo sapiens), P36888 [R834Q]. As to the kind of experiment: Inhibition of FLT3 R834Q mutant (unknown origin) assessed as residual activity at 1000 nM by KINOMEscan analysis relative to control.
Test [5] concerns the target Leucine-rich repeat serine/threonine-protein kinase 2 (Homo sapiens) (UniProt Q5S007). As to the kind of experiment: Inhibition of LRRK2 (unknown origin) assessed as residual activity at 1000 nM by KINOMEscan analysis relative to control.
Test [6] addresses T2, Mitogen-activated protein kinase kinase kinase kinase 2 (Homo sapiens) (UniProt Q12851).
T2 sequence (whole entry): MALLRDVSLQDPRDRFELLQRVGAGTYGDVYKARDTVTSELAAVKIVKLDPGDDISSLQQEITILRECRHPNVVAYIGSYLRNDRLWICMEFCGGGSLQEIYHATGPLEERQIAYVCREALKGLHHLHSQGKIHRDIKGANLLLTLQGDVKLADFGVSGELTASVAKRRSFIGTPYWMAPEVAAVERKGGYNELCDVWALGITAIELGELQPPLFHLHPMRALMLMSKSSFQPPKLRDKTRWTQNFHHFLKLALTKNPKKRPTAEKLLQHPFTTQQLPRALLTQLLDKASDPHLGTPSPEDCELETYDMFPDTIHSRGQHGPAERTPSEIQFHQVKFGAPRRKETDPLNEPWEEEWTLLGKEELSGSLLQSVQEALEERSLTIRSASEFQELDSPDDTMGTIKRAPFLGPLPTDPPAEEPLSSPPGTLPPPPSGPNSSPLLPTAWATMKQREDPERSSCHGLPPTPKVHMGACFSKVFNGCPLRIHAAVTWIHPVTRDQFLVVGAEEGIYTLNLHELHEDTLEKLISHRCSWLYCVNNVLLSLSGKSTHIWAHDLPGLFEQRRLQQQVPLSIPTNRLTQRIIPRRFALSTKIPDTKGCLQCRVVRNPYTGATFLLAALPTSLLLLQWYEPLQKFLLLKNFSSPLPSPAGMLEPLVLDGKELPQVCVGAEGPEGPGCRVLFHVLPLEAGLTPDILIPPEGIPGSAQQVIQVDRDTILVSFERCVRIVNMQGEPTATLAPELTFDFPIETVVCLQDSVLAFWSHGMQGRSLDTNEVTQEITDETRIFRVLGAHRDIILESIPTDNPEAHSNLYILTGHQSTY
As to the kind of experiment: Inhibition of MAP4K2 (unknown origin) assessed as residual activity at 1000 nM by KINOMEscan analysis relative to control.

Test [7] concerns the target Mitogen-activated protein kinase kinase kinase 10 (Homo sapiens) (UniProt Q02779). As to the kind of experiment: Inhibition of MLK2 (unknown origin) assessed as residual activity at 1000 nM by KINOMEscan analysis relative to control.
For test [8], the target named is T3, Mitogen-activated protein kinase 12 (Homo sapiens) (UniProt P53778).
T3 sequence (whole entry): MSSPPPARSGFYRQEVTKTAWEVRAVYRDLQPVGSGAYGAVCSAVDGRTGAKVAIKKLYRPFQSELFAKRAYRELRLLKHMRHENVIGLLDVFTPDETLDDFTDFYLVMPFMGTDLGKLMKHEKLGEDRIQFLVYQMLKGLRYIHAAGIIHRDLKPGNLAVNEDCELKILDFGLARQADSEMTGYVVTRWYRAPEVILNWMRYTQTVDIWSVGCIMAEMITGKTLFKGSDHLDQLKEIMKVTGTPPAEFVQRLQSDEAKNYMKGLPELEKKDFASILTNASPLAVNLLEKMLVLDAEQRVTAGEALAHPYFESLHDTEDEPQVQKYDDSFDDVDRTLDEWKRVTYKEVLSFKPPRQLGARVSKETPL
The test is described as follows: Inhibition of p38-gamma (unknown origin) assessed as residual activity at 1000 nM by KINOMEscan analysis relative to control.

Test [9] deals with Rho-associated protein kinase 1 (Homo sapiens) (UniProt Q13464). The test is described as follows: Inhibition of ROCK1 (unknown origin) assessed as residual activity at 1000 nM by KINOMEscan analysis relative to control.

Cyclin-dependent kinase 11B (Homo sapiens), sequence (P21127 whole entry): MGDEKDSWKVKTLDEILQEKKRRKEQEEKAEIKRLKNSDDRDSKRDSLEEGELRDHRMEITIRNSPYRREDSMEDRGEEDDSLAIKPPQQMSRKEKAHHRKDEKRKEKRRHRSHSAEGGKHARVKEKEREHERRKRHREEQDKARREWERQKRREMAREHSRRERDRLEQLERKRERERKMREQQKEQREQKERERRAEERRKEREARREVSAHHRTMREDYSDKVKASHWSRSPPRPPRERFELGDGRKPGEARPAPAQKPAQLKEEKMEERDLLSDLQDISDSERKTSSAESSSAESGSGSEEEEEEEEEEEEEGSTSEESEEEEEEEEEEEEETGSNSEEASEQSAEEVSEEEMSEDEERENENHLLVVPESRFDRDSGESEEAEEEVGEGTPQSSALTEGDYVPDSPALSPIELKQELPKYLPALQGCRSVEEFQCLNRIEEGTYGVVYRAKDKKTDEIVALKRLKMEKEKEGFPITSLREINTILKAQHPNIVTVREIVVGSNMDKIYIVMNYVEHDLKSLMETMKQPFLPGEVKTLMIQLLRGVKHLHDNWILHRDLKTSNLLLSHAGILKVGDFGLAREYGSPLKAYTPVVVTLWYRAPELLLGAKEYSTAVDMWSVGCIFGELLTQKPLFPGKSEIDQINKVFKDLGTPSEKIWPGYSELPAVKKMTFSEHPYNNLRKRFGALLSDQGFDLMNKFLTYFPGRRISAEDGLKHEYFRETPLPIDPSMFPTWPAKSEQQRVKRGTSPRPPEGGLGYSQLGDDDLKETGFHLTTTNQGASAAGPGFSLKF
Mitogen-activated protein kinase kinase kinase 10 (Homo sapiens), sequence (Q02779 whole entry, looked up): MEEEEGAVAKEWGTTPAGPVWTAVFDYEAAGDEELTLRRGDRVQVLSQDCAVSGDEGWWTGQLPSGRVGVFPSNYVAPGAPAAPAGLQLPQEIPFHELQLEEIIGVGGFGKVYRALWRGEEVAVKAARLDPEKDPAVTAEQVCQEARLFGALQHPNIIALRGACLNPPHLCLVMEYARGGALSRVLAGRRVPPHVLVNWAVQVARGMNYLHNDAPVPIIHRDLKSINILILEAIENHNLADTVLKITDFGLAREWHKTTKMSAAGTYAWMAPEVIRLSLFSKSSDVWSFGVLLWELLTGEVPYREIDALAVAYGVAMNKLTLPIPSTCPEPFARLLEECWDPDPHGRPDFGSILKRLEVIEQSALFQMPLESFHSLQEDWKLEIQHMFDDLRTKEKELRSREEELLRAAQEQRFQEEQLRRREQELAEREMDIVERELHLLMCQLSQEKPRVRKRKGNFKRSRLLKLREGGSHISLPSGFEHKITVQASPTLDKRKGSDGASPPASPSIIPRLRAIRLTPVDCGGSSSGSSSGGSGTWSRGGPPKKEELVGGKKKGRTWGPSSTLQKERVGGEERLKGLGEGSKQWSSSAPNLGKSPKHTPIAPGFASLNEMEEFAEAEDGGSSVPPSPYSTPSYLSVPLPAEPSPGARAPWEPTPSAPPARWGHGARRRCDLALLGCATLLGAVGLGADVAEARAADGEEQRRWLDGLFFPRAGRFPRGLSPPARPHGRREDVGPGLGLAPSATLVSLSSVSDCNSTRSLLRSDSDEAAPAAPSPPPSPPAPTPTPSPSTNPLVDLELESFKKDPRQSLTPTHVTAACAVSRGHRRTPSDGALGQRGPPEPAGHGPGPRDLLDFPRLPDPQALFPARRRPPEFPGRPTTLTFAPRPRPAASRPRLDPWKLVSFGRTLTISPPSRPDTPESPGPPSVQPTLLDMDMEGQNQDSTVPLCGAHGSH
Leucine-rich repeat serine/threonine-protein kinase 2 (Homo sapiens), sequence (Q5S007 whole entry): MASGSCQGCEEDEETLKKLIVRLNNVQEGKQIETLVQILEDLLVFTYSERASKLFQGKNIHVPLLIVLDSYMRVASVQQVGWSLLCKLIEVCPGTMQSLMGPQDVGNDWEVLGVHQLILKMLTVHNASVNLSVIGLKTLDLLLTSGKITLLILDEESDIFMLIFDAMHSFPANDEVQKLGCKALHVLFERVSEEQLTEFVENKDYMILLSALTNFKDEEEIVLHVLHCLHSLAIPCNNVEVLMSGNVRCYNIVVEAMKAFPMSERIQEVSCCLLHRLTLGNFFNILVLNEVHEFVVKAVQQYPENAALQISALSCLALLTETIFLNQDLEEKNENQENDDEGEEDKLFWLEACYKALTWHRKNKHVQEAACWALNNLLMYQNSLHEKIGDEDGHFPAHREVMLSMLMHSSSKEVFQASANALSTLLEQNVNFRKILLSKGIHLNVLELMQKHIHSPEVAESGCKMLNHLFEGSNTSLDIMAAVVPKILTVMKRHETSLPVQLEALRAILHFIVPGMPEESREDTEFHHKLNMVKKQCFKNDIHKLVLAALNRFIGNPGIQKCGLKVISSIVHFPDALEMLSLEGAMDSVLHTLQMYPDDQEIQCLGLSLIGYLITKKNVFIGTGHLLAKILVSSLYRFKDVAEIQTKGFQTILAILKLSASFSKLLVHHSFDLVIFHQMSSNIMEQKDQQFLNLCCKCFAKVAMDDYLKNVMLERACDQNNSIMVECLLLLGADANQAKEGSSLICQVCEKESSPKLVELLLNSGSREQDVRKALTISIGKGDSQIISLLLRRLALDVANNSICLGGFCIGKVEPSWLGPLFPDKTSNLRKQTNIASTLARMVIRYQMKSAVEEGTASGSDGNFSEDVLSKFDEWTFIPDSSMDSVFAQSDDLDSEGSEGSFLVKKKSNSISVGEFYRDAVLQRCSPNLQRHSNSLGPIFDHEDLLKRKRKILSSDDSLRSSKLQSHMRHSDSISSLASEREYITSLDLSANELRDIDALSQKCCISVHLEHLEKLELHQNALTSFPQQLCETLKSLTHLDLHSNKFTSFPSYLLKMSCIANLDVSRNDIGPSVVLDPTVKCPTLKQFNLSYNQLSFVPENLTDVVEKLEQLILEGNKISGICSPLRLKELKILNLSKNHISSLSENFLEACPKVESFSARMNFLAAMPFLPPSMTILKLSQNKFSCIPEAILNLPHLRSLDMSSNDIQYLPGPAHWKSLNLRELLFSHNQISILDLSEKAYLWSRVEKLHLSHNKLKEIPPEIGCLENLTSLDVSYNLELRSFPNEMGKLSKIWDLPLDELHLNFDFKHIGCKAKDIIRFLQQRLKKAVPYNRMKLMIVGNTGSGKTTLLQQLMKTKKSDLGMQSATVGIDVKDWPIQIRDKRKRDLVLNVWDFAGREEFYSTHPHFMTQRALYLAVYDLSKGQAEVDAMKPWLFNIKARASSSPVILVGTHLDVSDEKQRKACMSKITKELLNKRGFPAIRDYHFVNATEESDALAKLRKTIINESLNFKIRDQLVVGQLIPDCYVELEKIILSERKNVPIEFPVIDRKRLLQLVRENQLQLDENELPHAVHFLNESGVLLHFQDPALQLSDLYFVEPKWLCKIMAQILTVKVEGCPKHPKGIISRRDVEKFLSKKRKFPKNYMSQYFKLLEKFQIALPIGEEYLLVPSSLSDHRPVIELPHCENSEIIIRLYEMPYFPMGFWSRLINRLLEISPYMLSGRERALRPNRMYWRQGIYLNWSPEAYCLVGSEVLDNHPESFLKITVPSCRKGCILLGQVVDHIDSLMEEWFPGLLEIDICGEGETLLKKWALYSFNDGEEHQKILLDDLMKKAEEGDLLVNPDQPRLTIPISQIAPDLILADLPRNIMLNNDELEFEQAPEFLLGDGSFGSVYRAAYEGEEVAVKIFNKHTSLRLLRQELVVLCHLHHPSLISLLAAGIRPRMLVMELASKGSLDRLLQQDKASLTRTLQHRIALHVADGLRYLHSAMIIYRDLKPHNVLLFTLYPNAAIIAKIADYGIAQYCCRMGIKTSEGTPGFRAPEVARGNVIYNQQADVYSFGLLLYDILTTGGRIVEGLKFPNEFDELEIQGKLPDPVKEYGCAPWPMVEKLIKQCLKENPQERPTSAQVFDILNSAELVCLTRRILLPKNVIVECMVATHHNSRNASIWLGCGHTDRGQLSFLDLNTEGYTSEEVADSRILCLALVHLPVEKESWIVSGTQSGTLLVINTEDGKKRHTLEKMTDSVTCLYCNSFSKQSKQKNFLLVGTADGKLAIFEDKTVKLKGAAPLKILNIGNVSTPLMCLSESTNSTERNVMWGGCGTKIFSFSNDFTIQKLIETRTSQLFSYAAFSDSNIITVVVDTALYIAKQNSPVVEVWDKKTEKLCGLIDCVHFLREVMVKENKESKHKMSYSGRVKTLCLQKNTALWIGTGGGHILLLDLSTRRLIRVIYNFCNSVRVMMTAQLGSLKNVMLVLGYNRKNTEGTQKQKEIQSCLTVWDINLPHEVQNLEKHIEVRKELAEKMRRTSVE

Regarding `COc1cc2nc(C)nc(N[C@H](C)c3cccc(-c4cn[nH]c4)c3)c2cc1OC`, the Activity in test [1] amounted to 100%; in test [2] it was 92%; in test [3], 100%; in test [4], 89%; in [5] it was 94%; in test [6] it was 100%. Also, the Activity in test [7] was found to be 42%; in test [8], 52%; in test [9], 96%.
`COc1cc2ncnc(N[C@H](C)c3cccc4ccccc34)c2cc1OC`: the Activity in [1] came out at 84%; in test [2] it was 74%; in test [3] it was 94%; in test [4] it was 91%; in [5], 99%; in test [6], 78%. Also, the Activity in test [7] came out at 97%; in [8], 91%; in test [9], 88%.

These data come from ChEMBL document CHEMBL5678818, “Discovery of potent SOS1 inhibitors that block RAS activation via disruption of the RAS-SOS1 interaction” (Proc Natl Acad Sci U S A, 2019).
